Reference: article PMC2955773 (ACS chemical biology, 2010)
Read-outs that look alike come from different tables or passages of the source. Each block holds one molecule with its values, some of them ahead of it.

Tests used:
Nox1 [1] = molecular target: T1, Nox1 (Homo sapiens, UniProt Q9Y5S8); experiment: Luminol-based chemiluminescence; type: cell-based; details: for ability to block Nox1-dependent ROS generation: HT29 cells, luminol-based CL assay
T1 sequence (Q9Y5S8 1-564): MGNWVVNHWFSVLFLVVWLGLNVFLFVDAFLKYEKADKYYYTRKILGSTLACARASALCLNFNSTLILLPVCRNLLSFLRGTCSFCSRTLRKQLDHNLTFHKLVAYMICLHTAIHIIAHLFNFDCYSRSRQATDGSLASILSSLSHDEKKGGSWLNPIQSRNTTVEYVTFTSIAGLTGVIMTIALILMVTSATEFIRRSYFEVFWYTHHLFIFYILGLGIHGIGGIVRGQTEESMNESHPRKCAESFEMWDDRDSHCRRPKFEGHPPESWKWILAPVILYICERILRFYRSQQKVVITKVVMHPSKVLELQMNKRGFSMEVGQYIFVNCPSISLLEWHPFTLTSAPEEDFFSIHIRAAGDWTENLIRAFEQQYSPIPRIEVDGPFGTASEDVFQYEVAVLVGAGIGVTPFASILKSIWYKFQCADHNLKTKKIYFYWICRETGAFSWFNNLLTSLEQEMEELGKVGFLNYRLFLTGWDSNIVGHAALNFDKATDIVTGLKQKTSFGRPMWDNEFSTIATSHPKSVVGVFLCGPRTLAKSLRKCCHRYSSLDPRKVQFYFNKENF
T1 sequence (P13498 2-195 partner limits assumed): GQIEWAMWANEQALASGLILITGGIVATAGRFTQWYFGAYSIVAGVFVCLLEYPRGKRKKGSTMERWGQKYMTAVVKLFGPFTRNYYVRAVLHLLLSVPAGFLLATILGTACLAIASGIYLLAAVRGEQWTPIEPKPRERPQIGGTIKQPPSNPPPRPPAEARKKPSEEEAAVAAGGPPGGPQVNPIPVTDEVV

DLD1 cells [2] = experiment: SrcYF-induced invadopodia formation; type: cell-based, human; details: SrcYF-transfected DLD1 cells, treated 1hr; ML171 10 μM
Rac1 = Rac1 (Homo sapiens, UniProt P63000); experiment: Rac loading assay; type: biochemical; details: recombinant Rac1, compared with Mg2+ positive control
[3] = molecular target: T2, adrenergic alpha2C receptor (Homo sapiens, UniProt P18825); experiment: Competitive binding assay; set-up: species or system human or rodent
T2 sequence (P18825 1-462): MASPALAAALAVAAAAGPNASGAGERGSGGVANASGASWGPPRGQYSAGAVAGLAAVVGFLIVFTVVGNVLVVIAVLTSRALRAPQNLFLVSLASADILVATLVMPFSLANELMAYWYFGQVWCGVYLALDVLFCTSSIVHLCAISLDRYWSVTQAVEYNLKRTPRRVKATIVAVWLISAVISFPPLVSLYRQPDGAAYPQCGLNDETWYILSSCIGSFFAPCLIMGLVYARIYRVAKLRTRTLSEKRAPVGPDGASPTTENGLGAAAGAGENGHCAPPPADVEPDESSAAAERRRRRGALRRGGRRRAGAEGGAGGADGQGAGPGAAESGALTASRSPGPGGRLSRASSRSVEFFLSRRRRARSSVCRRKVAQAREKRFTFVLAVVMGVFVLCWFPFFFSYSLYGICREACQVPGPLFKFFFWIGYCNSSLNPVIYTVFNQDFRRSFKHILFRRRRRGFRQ

[4] = test system: mitochondrial ROS generation in DLD1; experiment: Mitochondrial ROS generation by MitoSox dye; type: cell-based, human; details: compared to DMSO
[5] = molecular target: T3, serotonin 5-HT2C receptor (Homo sapiens, UniProt P28335); experiment: Competitive binding assay; set-up: species or system human or rodent
T3 sequence (P28335 33-458): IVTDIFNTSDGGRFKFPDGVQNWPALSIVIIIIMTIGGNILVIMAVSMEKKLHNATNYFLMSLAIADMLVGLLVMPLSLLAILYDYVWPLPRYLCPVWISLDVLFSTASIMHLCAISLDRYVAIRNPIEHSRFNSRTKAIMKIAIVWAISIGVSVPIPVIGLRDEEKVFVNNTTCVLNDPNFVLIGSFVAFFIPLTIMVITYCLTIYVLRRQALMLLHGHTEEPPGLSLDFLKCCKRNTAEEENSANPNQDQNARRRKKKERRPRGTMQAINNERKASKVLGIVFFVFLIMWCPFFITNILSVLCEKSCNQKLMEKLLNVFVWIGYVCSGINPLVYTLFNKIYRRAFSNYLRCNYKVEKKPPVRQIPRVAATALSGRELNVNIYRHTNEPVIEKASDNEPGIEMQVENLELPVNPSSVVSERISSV

DLD1 cells [6] = experiment: ECM degradation assay; type: cell-based, human; details: SrcYF-transfected DLD1 cells, 10 μM, 1.5hrs
[7] = test system: G-protein coupled receptors (GPCRs), channels and transporters expressed in the CNS; experiment: Competitive binding to a large battery of CNS receptors; set-up: species or system human or rodent
Nox1 [8] = molecular target: T1, Nox1; experiment: HEK293-Nox1 reconstituted cell system, ROS generation by CL assay; details: HEK293-Nox1 reconstituted cell system treated with ML171
xanthine oxidase (XO) = xanthine oxidase (XO) (Bos taurus, UniProt P80457); experiment: Xanthine oxidase specificity assay; type: biochemical
Sequence of xanthine oxidase (XO) (P80457 2-1332): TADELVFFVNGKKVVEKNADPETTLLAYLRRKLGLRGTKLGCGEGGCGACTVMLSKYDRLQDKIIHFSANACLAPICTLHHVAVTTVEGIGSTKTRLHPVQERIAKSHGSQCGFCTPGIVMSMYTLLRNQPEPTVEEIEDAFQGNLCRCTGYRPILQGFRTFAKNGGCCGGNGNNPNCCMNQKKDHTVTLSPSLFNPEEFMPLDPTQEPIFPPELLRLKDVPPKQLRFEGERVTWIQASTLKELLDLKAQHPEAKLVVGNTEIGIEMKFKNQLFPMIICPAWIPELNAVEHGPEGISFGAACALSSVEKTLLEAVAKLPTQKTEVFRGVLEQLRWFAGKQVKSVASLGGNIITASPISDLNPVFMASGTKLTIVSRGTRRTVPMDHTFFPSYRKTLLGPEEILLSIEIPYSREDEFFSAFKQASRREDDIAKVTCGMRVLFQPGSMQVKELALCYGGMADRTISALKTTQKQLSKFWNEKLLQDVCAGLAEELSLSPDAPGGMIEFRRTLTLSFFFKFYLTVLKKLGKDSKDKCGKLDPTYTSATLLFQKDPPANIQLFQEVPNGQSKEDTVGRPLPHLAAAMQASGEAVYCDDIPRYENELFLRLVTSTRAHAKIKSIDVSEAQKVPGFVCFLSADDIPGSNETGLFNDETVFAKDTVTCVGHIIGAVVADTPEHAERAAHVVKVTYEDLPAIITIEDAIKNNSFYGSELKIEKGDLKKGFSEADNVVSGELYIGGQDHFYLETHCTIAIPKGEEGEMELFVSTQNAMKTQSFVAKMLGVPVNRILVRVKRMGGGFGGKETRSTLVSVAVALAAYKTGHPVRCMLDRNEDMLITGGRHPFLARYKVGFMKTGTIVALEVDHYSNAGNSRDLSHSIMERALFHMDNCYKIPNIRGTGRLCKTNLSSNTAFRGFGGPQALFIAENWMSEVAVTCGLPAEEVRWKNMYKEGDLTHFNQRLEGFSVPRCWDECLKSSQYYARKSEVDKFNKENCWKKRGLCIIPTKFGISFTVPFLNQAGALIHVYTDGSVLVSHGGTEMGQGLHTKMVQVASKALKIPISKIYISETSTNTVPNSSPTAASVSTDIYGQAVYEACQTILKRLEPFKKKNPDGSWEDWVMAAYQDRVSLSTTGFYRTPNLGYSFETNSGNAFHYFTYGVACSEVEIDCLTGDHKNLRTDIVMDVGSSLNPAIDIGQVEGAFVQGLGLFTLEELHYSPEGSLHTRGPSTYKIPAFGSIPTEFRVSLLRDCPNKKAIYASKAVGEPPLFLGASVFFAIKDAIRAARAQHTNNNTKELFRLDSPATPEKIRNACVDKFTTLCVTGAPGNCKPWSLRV

ROS production = ROS production measured by carboxy-H2-DCFDA staining; type: cell-based; details: second method of ROS detection
[9] = molecular target: serotonin 5-HT2B receptor (Homo sapiens, UniProt P41595); experiment: Competitive binding assay; set-up: species or system human or rodent
Sequence of serotonin 5-HT2B receptor (P41595 whole entry): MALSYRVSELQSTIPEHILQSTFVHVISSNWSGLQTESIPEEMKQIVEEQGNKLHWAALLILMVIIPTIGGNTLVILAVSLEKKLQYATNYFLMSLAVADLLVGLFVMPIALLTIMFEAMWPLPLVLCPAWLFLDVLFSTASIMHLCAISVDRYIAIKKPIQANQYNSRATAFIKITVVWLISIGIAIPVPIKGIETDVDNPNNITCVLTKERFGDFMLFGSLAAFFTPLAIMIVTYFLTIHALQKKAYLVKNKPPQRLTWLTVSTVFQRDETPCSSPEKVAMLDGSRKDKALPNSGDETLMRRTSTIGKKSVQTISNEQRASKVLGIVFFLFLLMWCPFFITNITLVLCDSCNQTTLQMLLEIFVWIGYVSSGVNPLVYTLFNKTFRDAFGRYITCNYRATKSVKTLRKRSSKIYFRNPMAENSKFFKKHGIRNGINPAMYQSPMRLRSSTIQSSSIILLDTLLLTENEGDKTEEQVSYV

Nox2 [10] = molecular target: T4, Nox2 (Homo sapiens, UniProt P04839); experiment: Nox2 cell-free system; type: biochemical; details: 10 μM
T4 sequence (P04839 2-570 limits assumed): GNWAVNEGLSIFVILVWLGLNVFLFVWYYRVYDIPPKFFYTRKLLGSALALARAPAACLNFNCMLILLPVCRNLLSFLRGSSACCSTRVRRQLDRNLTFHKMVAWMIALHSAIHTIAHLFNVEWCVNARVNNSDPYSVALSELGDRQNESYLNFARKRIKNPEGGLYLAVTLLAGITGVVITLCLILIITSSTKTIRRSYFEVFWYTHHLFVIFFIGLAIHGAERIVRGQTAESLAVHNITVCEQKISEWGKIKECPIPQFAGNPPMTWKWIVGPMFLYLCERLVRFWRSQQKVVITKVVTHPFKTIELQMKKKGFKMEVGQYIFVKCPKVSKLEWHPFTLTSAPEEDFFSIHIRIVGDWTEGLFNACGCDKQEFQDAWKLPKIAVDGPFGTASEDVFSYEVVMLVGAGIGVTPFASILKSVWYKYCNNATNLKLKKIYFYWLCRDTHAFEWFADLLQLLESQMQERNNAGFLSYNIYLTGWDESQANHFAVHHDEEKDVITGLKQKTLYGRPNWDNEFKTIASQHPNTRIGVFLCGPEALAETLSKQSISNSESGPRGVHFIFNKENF
T4 sequence (P13498 2-195 partner limits assumed): T1 sequence (P13498 2-195 partner limits assumed)

Nox2 [11] = molecular target: T4, Nox2; experiment: Superoxide production in fMLP-treated human neutrophils; type: cell-based; details: 10 μM
[12] = HT29 cell-based assay, ROS generation, SAR study
[13] = read-out: Micromolar IC50 HT29 Assay, HT29 cell-based assay, ROS generation, SAR study
[14] = secondary concentration-response analysis

Compound: OCCN1CCN(CCCN2c3ccccc3Sc3ccc(Cl)cc32)CC1 [perphenazine, reference compound]
ability to block Nox1-dependent ROS generation (Nox1 [1]): unable to block Nox1-dependent ROS generation

Compound: CN1CCN(CCCN2c3ccccc3Sc3ccc(C(F)(F)F)cc32)CC1.Cl.Cl [SR-01000003020-6]
Micromolar IC50 HT29 Assay (Nox1 [1]; [12]): Inactive (AID 2808)

Compound: CN(C)CCCN1c2ccccc2Sc2ccccc21 [SR-01000000228-4, promazine, reference compound]
Micromolar IC50 HT29 Assay (Nox1 [1]; [12]): Inactive (AID 2808)

Compound: CN(C)CCCN1c2ccccc2Sc2ccc(C(F)(F)F)cc21 [SR-01000000224-4, Triflupromazine, reference compound]
Micromolar IC50 HT29 Assay (Nox1 [1]; [12]): Inactive (AID 2808)

Compound: OCCN1CCN(CCCN2c3ccccc3Sc3ccc(Cl)cc32)CC1 [SR-01000000137-4]
Micromolar IC50 HT29 Assay (Nox1 [1]; [12]): Inactive (AID 2808)

Compound: O=[N+]([O-])c1ccc2c(c1)Sc1ccc(C(F)(F)F)cc1N2 [SR-03000000695-1]
IC50 (Nox1 [1]; [13]): 1400 nM

Compound: CC(=O)c1ccc2c(c1)Nc1ccccc1S2 [ML171, 2-acetylphenothiazine]
block of Rac1 loading with GTP (Rac1): only marginally block Rac1 loading
% of inhibition ([3]; primary binding assay): > 60%
Ki [3, 14]: micromolar range
invadopodia formation (DLD1 cells [2]): strongly decreased SrcYF-induced invadopodia formation
mitochondrial ROS generation [4]: did not decrease mitochondrial ROS generation
% of inhibition ([5]; primary binding assay): > 60%
Ki [5, 14]: micromolar range
ECM degradation (DLD1 cells [6]): strongly reduced the ability of SrcYF-transfected DLD1 cells to degrade the ECM
binding to receptors of the battery [7]: did not significantly bind most of the receptors tested
rescue of ROS generation by over-expression of Nox1, NoxA1 or NoxO1 (Nox1 [8]): only increasing over-expression of Nox1 could rescue ROS generation
inhibition of XO-dependent ROS generation (xanthine oxidase (XO)): unable to inhibit XO-dependent ROS generation
ROS production by carboxy-H2-DCFDA staining (ROS production): efficiently blocks ROS production
% of inhibition ([9]; primary binding assay): > 60%
Ki [9, 14]: micromolar range

Compound: c1ccc2c(c1)[I+]c1ccccc1-2 [DPI, diphenylene iodonium, reference compound]
superoxide formation (Nox2 [10]): dramatically inhibit superoxide formation
superoxide formation (Nox2 [11]): dramatically inhibit superoxide formation
mitochondrial ROS generation [4]: slightly reduced ROS generation in mitochondria
ECM degradation (DLD1 cells [6]): blocked this effect

Compound: CN1CCN(CCCN2c3ccccc3Sc3ccc(C(F)(F)F)cc32)CC1 [trifluperazine, reference compound]
ability to block Nox1-dependent ROS generation (Nox1 [1]): unable to block Nox1-dependent ROS generation

Compound: c1ccc2c(c1)Nc1ccccc1S2 [SR-01000721844-3]
IC50 (Nox1 [1]; [13]): 370 nM

Compound: Cl.Cl.OCCN1CCN(CCCN2c3ccccc3Sc3ccc(C(F)(F)F)cc32)CC1 [SR-01000003048-5, Fluorophenazine, reference compound]
Micromolar IC50 HT29 Assay (Nox1 [1]; [12]): Inactive (AID 2808)

More lines, main results first:

IC50 (Nox1 [1]; [13]): 250 nM
Compound: Clc1ccc2c(c1)Nc1ccccc1S2 [SR-01000596948-2]

IC50 (Nox1 [1]; [13]): 940 nM
Compound: COc1ccc2c(c1)Sc1ccccc1N2 [SR-01000025134-3]

IC50 (Nox1 [1]): > 50000 nM
Micromolar IC50 HT29 Assay (Nox1 [1]; [12]): Inactive (AID 2808)
Compound: CN(C)CCCN1c2ccccc2Sc2ccc(Cl)cc21 [chlorpromazine, reference compound]
invadopodia formation (DLD1 cells [2]): did not observe a decreased ability of DLD1 cells to form cortactin-positive, F-actin-rich invadopodia

IC50 (Nox1 [1]; [13]): 360 nM
Compound: CC(O)c1ccc2c(c1)Nc1ccccc1S2 (stereo not drawn) [SR-03000000760-1]

IC50 (Nox1 [1]; [13]): 5300 nM
Compound: Cc1ccc(S(=O)(=O)c2ccc3c(c2)Sc2ccc(Cl)cc2N3)cc1 [SR-03000000707-1]

IC50 (Nox1 [1]; [13]): 920 nM
Compound: CCOC(=O)Nc1ccc2c(c1)Nc1ccccc1S2 [SR-01000477673-3]

IC50 (Nox1 [1]; [13]): 177 nM
Compound: COc1ccc2c(c1)Sc1ccc(Cl)cc1N2 [SR-03000000698-1]
